In US20190030053A1, “COMPOSITION FOR INCREASING EXPRESSION OF PGC-1alpha” (BENEBIOSIS CO., LTD., priority 2016, published 2019):
“Also recorded” adds a separate entry of the source.

Experiments:
telomerase = test: Telomerase activity (TRAP) in vivo, aorta of aging stimulation models; design: species or system mouse; settings: oral 0.1 mg/kg/day
Method: In order to investigate the gene expression changes by body parts by the treatment with SL (3′-SL & 6′-SL) compositions in aging stimulation models, 4-week-old male aging stimulation model mice (SAM P1/Sku Slc) were purchased from Central Lab Animal (Korea). Water was freely accessible, and a commercially available pellet feed (Dooyeul Biotech, Korea) was given for one week. […]
In FIGS. 18a and 18b, the telomerase activity was measured using TRAP protocol (Wright et al., 1995). […] The fluorescence of the thus obtained TRAP product was measured using a fluorescent plate reader to quantify telomerase activity. Relative telomerase activity was normalized by the ratio of native […] to sulforhodamine (internal control standard), expressed as a percentage. […]

PGC-1α and related genes [1] = test: Gene expression by body parts in skin test models; format: in vivo, mouse; settings: HRM2 mice, oral 0.1 mg/kg/day, 10 weeks; organs and muscles
Text: In order to investigate the gene expression chages by body parts by the treatment with the SL (3′-SL & 6′-SL) compositions in skin test models, 6-week-old male skin test model (HRM2) mice (hairless appearance containing melanin) were randomly grouped into three different dietary treatment groups (8 animals per group, a total of 24 animals) below, and the diets (AIN-76A, Dyets, USA) were maintained for 10 weeks. […]
The gene expression changes by administration of the SL (3′-SL & 6′-SL) compositions were quantitatively compared for eight main organs (heart, hippocampus, brain, spinal cord, lung, liver, spleen, and kidney), three skeletal muscles (soleus muscle, quadriceps femoris muscle, and gastrocnemius muscle), and the like. RNA was extracted by TRIzol agent (Invitrogen). cDNA was synthesized by using RNA, which has been extracted as above and quantified, and a reverse transcription system (Promega, USA). The expression patterns of PGC-1α and related genes were measured by using pre-designed primers and probes (Applied Biosystems; PGC-1α, Mm00447181_m1, GAPDH, and Mm99999915_q1) for the synthesized cDNA and analysis targets (Fndc5, PGC-1α, Erra, UCP1, SOD2, and GPX1). […]

PGC-1α and related genes [2] = test: Gene expression in nerve cell test (Neuro-2a); format: cell-based, mouse; settings: Neuro-2a cells, 0.1 mg/ml, 24 hours
Method: Neuroblasts (Neuro-2a, American Type Culture Collection, USA) were cultured in DMEM supplemented with 10% fetal bovine serum, […], and 0.1 mg/mL streptomycin in each well of 6-well plates at 37° C. in 5% CO2/95% atmospheric conditions. Neuro-2a cells correspond to the fast-growing mouse neuroblastoma cell line. After Neuro-2a cells were seeded at a density of 6000 cells per well, SL was added at a concentration of 0.1 mg/ml into the wells showing a confluency of about 5×10^6 cells/ml, followed by incubation for 24 hours under the same conditions. SL (3′-SL or 6′-SL) materials were the same as those described in Example 1. Unless otherwise stated, SL (3′-SL or 6′-SL) and the use concentrations thereof are understood to be the same as those described in Example 1. The negative control group was treated with physiological saline with 1/1000 of the volume of the medium. The cells treated with each sample were incubated at 37° C. for 24 hours, and then washed twice with cool saline solution, and RNA was extracted using TRIzol agent (Invitrogen). The expression patterns of PGC-1α and related genes were measured by using pre-designed primers and probes (Applied Biosystems; PGC-1α, Mm00447181_m1, GAPDH, and Mm99999915_q1) for the synthesized cDNA and analysis targets (Fndc5, PGC-1α, Erra, UCP1, BDNF, SOD2, and GPX1). […]

Row | Compound | telomerase activity in aorta sample (in vivo) (telomerase) | expression levels of analysis targets (Fndc5, PGC-1α, Erra, UCP1, SOD2, GPX1) vs negative control (PGC-1α and related genes [1]) | expression levels of analysis targets (Fndc5, PGC-1α, Erra, UCP1, BDNF, SOD2, GPX1) vs negative control (PGC-1α and related genes [2])
1 | CC(=O)N[C@H]1[C@H]([C@H](O)[C@H](O)CO)O[C@@](O[C@H]2[C@@H](O)[C@@H](CO)O[C@@H](O[C@H]3[C@H](O)[C@@H](O)C(O)O[C@@H]3CO)[C@@H]2O)(C(=O)O)C[C@@H]1O (stereo partly drawn) [3′-SL, α-NeuNAc-(2→3)-β-D-Gal-(1→4)-D-Glc] | increased telomerase activity | relatively low compared with 6′-SL | significant increases; also recorded: lower than that of 6′-SL
2 | CC(=O)N[C@H]1[C@H]([C@H](O)[C@H](O)CO)O[C@@](OC[C@H]2O[C@@H](O[C@H]3[C@H](O)[C@@H](O)[C@H](O)O[C@@H]3CO)[C@H](O)[C@@H](O)[C@H]2O)(C(=O)O)C[C@@H]1O [6′-SL, α-NeuNAc-(2→6)-β-D-Gal-(1→4)-D-Glc] | increased telomerase activity | very excellent | significant increases
